Paper PMC3812159, “A Comparative Analysis of the Ubiquitination Kinetics of Multiple Degrons to Identify an Ideal Targeting Sequence for a Proteasome Reporter” (PLoS ONE, 2013)
Read-outs that look alike come from different tables or passages of the source. Residues, ends and D or L forms follow the SMILES beside them. *: point of attachment. 5FAM = O=C1OC2(c3ccc(O)cc3Oc3cc(O)ccc32)c2ccc(C(=O)*)cc21

Key:
[1] = tested on: endogenous proteases and peptidases found in the S100 lysates; assay: Peptidase-dependent degradation rate constants from the multi-monoubiquitination model; details: values multiplied by 10^3; for k5, rate constant for peptidase-dependent degradation of unmodified parent substrate: HeLa S100 cytosolic lysates 2 mg/mL, proteasome inhibited by 100 µM MG-132, pH 7.6, 37°C, 12-14 µM peptide, model-fitted (MCMC), degraded substrate not measured; for k6, rate constant for peptidase-dependent degradation of mono-ubiquitinated substrate / k7, rate constant for peptidase-dependent degradation of di-ubiquitinated substrate / k8, rate constant for peptidase-dependent degradation of tri-ubiquitinated substrate / k9, rate constant for peptidase-dependent degradation of tetra-ubiquitinated substrate: as k5, HeLa S100 lysates, MG-132, 37°C, model-fitted
Experimental: (§1) The in vitro ubiquitination assay was carried out at the indicated times at 37°C in a total reaction volume of 25 µL containing assay buffer (10 mM Tris-HCl pH 7.6 and 5 mM MgCl2) with 2 mM DTT, 20 µg/mL ubiquitin aldehyde (Boston Biochem), 400 µg/mL methylated ubiquitin (Enzo Life Sciences), 1×ATP energy regenerating solution (ATP-ERS, Boston Biochem), 100 µM of the proteasome inhibitor MG-132 (EMD Chemicals), 2 mg/mL HeLa S100 cytosolic lysates as the source of E1, E2, and E3 enzymes, 750 ng of indicated peptide substrate, and inhibitors Complete ULTRA and PhosSTOP (Roche). Reactions were halted by addition of 2× tricine sample buffer (Bio-Rad) and subsequent boiling. Samples were loaded onto SDS page gels (precast 16.5% Mini PROTEAN Tris-Tricine, Bio-Rad) using 1× tris-tricine running buffer and visualized with a Typhoon Imager (GE Healthcare Life Sciences). Gels were quantified using ImageJ (US National Institute of Health) by comparing sample intensity to unreacted parent peptide intensity, which is not depicted in the gels.
(§2) Ubiquitin pull down assays were performed similarly to the in vitro ubiquitination assay as described above, with the exception of a total volume of 100 µL and 4.2 µg of peptide substrate. At the end of the indicated times, samples were incubated with Control-Agarose beads (LifeSensors), diluted in TBS-T buffer (20 mM Tris-HCl pH 8.0, 150 mM NaCl, and 0.1% v/v Tween-20), for 60 min on a tube rotator at 4°C. Samples were subsequently centrifuged at 1800×g for 5 min to pellet and remove control beads. The supernatant was transferred to solution of Agarose-TUBES1 (LifeSensors) diluted in TBS-T and incubated overnight on a tube rotator at 4°C. Ubiquitin-bound beads were washed 5× with TBS-T and then the samples were eluted off of the bead with 2× tricine sample buffer, boiled for 5 min, and then isolated by centrifugation for 5 min at 13000×g. Samples were loaded onto an SDS PAGE gel, electrophoresed, visualized and quantified as described above.
(§3) The series of ordinary differential equations were solved in MATLAB using ODE15s and the boundary conditions defined in equations S1–S6. Kinetic rate constants were determined using a Markov Chain Monte Carlo (MCMC) algorithm in MATLAB by minimizing the cumulative sum of the squared deviations (cSSD), as defined by equations S8–S9, between the calculated and experimental data similar to previous work by Cirit et. al. [23].
(§4) To accomplish this objective, a kinetic model was developed to describe the step-wise ubiquitination of the degron-based substrates. The goal of this model was to both determine the reaction kinetics for ubiquitin transfer to the degron-based substrates and distinguish polyubiquitination from multi-monoubiquitination. […] Each step in the reaction was described by a corresponding rate constant (k1–k9). Due to the presence of the deubiquitinating enzyme (DUB) inhibitor ubiquitin aldehyde, substrate deubiquitination was neglected. Further, the proteasome inhibitor MG-132 was added at an appropriate amount to neglect proteasome-mediated degradation of the substrates.

[2] = tested on: TAZ-based substrate ubiquitination (a target of the SCF^βTrCP E3 ligase); assay: Ubiquitin pull down of TAZ-based substrate with inhibitors of the E1-E3 cascade; type: biochemical; details: 2 hours at 37°C with inhibitor, gel, concentrations only in Figure 5b
Experimental: Figure 5 Variations in E3 ligase activity result in fluxuations in degron-based substrate ubiquitination. (A) To evaluate the impact of different levels of E3 ligase activity, the four top performing degron-based substrates (β-Catenin, Bonger, iNOS, and p53) were incubated in lysates from four different cell lines (HeLa, U937, THP-1, and HL60) in the ubiquitin pull down assay. Further, the assay was supplemented with wild type ubiquitin to examine polyubiquitin chain formation. All reaction mixtures were incubated for 2 hours at 37°C prior to continuation with the pull down assay. (B) The effects of a NEDD8 inhibitor (MLN-4924) and an E1 inhibitor (PYR-41) were examined on the TAZ-based substrate (a target of the SCF^βTrCP E3 ligase). The ubiquitin pull down was performed as previously described with the reactions incubated for 2 hours with the listed inhibitor concentrations at 37°C prior to continuation with the pull down assay. […]
To perform a more precise analysis of the impact of variations in E3 ligase activity on degron-based substrate ubiquitination and to identify any issues with peptide specificity, the second route of experimentation was the application of known inhibitors of the E1–E3 enzymatic cascade. […] To examine the effects of partially inhibiting SCF^βTrCP, TAZ-based substrate ubiquitination was assessed in the presence and absence of this inhibitor (Figure 5b).

[3] = tested on: endogenous proteases and peptidases found in the S100 lysates
Experimental: as §1, §2, §3, §4

[4] = tested on: HeLa S100 cytosolic lysates as the source of E1, E2, and E3 enzymes; assay: Ubiquitin pull down assay with methylated ubiquitin, multi-monoubiquitination kinetic model; type: biochemical; details: for substrate ubiquitination, fluorescent intensity compared to unmodified substrate: ubiquitin pull down, methylated ubiquitin, time points up to 240 min, n = 3; for k1/k5, mono-ubiquitination vs. degradation of unmodified substrate: ratio of fitted rate constants, >1 favours ubiquitination, <1 degradation
Description: A second model based on substrate multi-monoubiquitination was developed and evaluated. This model assumed that the generation of di-, tri-, and tetra-ubiquitinated species was the result of multiple methylated ubiquitins being conjugated to the multiple available lysines found on the degron-based substrate (Figure 3a). As opposed to the polyubiquitination model, the multi-monoubiquitination model accurately fit the data for all eight degron-based substrates (Figure 3b–d, Figure S4 in File S1, Table 2). Using this model, kinetic rate constants for all ubiquitination (k1 for mono-, k2 for di-, k3 for tri-, and k4 for tetra-) and peptidase-dependent degradation steps (Table 2) were calculated. The multi-monoubiquitination model nicely corresponded to the observed results in Figure 2. […] The model also captured the preference for di-ubiquitination of the Cyclin D1 degron (k2 is two-fold greater than k1) and the equal preference of mono- and di-ubiquitination states found in the HIF-1α degron (k1 of 2.6 and k2 of 3.0). Further, the similar behavior and observed kinetics for IFNAR and TAZ degrons were mostly likely due to the fact that these degrons are recognized by the same E3 ligase, SCF^βTrCP (Table 1). To test the robustness of the multi-monoubiquitination model, a ninth substrate based on the degron from the protein β-Catenin was assessed. This substrate was selected because it is ubiquitinated by the same E3 ligase as TAZ and IFNAR1, SCF^βTrCP. The model accurately fit the data for the multi-monoubiquitination of the β-Catenin degron-based substrate with similar rate constants compared to the TAZ and IFNAR1-based substrates (Table 2). Finally, it was important to assess the validity of the model by addressing the relative goodness of fit between the experimental data and the model predictions as determined from the multi-monoubiquitination model. For this particular analysis it was decided to calculate the sample Pearson correlation coefficient (Eq. S10 in File S1), a widely used metric to measure the dependence between two variables. A correlation coefficient was calculated between the model predictions and experimental data for mono-, di-, tri-, and tetra-ubiquitinated substrate for all nine degron-based substrates (Table S1 in File S1). As per convention, a positive value approaching 1 corresponds to a very good fit, which is observed for all nine substrates indicating a good fit between model and data.

| Compound | k5, rate constant for peptidase-dependent degradation of unmodified parent substrate [1] | k6, rate constant for peptidase-dependent degradation of mono-ubiquitinated substrate [1] | k7, rate constant for peptidase-dependent degradation of di-ubiquitinated substrate [1] | k8, rate constant for peptidase-dependent degradation of tri-ubiquitinated substrate [1] | k9, rate constant for peptidase-dependent degradation of tetra-ubiquitinated substrate [1] | effect of inhibitor on ubiquitination of the TAZ-based substrate [2] | k6, rate constant for peptidase-dependent degradation of mono-ubiquitinated substrate [3] | k7, rate constant for peptidase-dependent degradation of di-ubiquitinated substrate [3] | k8, rate constant for peptidase-dependent degradation of tri-ubiquitinated substrate [3] | k9, rate constant for peptidase-dependent degradation of tetra-ubiquitinated substrate [3] | substrate ubiquitination, fluorescent intensity compared to unmodified substrate [4] | k1/k5, mono-ubiquitination vs. degradation of unmodified substrate [4] |
| --- | --- | --- | --- | --- | --- | --- | --- | --- | --- | --- | --- | --- |
| CC(=O)N[C@@H](CCCCN)C(=O)N[C@H](C(=O)N[C@@H](CCCNC(=N)N)C(=O)NCC(=O)N[C@H](C(=O)N[C@@H](CCC(=O)O)C(=O)N[C@@H](CCC(=O)O)C(=O)N[C@H](C(=O)N[C@@H](C)C(=O)N[C@@H](CCC(=O)O)C(=O)NCC(=O)N[C@H](C(=O)N[C@H](C(=O)N[C@@H](CC(C)C)C(=O)N[C@@H](CC(C)C)C(=O)N[C@@H](CCCNC(=N)N)C(=O)N[C@@H](CCCNC(=N)N)C(=O)N[C@@H](CCCNC(=N)N)C(=O)NCC(=O)N[C@@H](CC(N)=O)C(=O)N[C@@H](CCCCNC(=O)c1ccc2c(c1)C(=O)OC21c2ccc(O)cc2Oc2cc(O)ccc21)C(=O)N[C@@H](CCCCN)C(=O)N[C@@H](CCCCN)C(=O)N[C@@H](CCCCN)C(N)=O)C(C)C)C(C)C)C(C)C)C(C)C)[C@@H](C)O [Bonger] (Ac-KTRGVEEVAEGVVLLRRRGNK(5FAM)KKK-NH2) | 4.0 (1/min)*10^3 | 0.01 (1/min)*10^3 | 1.0 (1/min)*10^3 | 0.01 (1/min)*10^3 | 0.01 (1/min)*10^3 |  |  |  |  |  |  |  |
| CC[C@H](C)[C@H](NC(=O)[C@H](Cc1ccc(O)cc1)NC(=O)[C@@H]1CCCN1C(=O)[C@H](C)NC(=O)[C@H](CC(C)C)NC(=O)[C@H](C)NC(=O)[C@H](CCC(=O)O)NC(=O)[C@H](CC(C)C)NC(=O)[C@H](CC(=O)O)NC(=O)[C@H](CC(C)C)NC(=O)[C@H](CC(=O)O)NC(=O)[C@H](C)NC(=O)[C@H](CO)NC(=O)[C@H](C)NC(C)=O)C(=O)N1CCC[C@H]1C(=O)N[C@@H](C)C(=O)N[C@@H](CC(=O)O)C(=O)N[C@@H](CC(=O)O)C(=O)N[C@@H](CC(=O)O)C(=O)N[C@@H](Cc1ccccc1)C(=O)N[C@@H](CCC(N)=O)C(=O)N[C@@H](CC(C)C)C(=O)N[C@@H](CCCNC(=N)N)C(=O)N[C@@H](CCCCNC(=O)c1ccc2c(c1)C(=O)OC21c2ccc(O)cc2Oc2cc(O)ccc21)C(=O)N[C@@H](CCCCN)C(=O)N[C@@H](CCCCN)C(=O)N[C@@H](CCCCN)C(N)=O [HIF-1α] (Ac-ASADLDLEALAPYIPADDDFQLRK(5FAM)KKK-NH2) | 7.0 (1/min)*10^3 | 0.1 (1/min)*10^3 | 0.1 (1/min)*10^3 | 0.4 (1/min)*10^3 | 0.8 (1/min)*10^3 |  |  |  |  |  |  |  |
| NS(=O)(=O)OC[C@@H]1C[C@@H](n2ccc3c(N[C@H]4CCc5ccccc54)ncnc32)C[C@@H]1O [MLN-4924] |  |  |  |  |  | slightly impaired |  |  |  |  |  |  |
| CCOC(=O)c1ccc(N2NC(=O)/C(=C/c3ccc([N+](=O)[O-])o3)C2=O)cc1 [PYR-41] |  |  |  |  |  | reduced ubiquitination |  |  |  |  |  |  |
| CC(=O)N[C@@H](CCCCN)C(=O)N1CCC[C@H]1C(=O)N[C@@H](CC(C)C)C(=O)N[C@@H](CO)C(=O)N[C@@H](CO)C(=O)N[C@@H](CO)C(=O)N[C@H](C(=O)N1CCC[C@H]1C(=O)N[C@@H](CO)C(=O)N[C@@H](CCC(N)=O)C(=O)N[C@@H](CCCCN)C(=O)N[C@H](C(=O)N[C@@H](Cc1ccc(O)cc1)C(=O)N[C@@H](CCC(N)=O)C(=O)NCC(=O)N[C@@H](CO)C(=O)N[C@@H](Cc1ccc(O)cc1)C(=O)NCC(=O)N[C@@H](Cc1ccccc1)C(=O)N[C@@H](CCCNC(=N)N)C(=O)N[C@@H](CC(C)C)C(=O)NCC(=O)N[C@@H](CCCCNC(=O)c1ccc2c(c1)C(=O)OC21c2ccc(O)cc2Oc2cc(O)ccc21)C(=O)N[C@@H](CCCCN)C(=O)N[C@@H](CCCCN)C(=O)N[C@@H](CCCCN)C(N)=O)[C@@H](C)O)C(C)C [p53] (Ac-KPLSSSVPSQKTYQGSYGFRLGK(5FAM)KKK-NH2) |  |  |  |  |  |  | 0.01 (1/min)*10^3 | 0.01 (1/min)*10^3 | 0.01 (1/min)*10^3 | 0.33 (1/min)*10^3 |  |  |
| K-(PEG)-DVQKADVSSTGQGIDSK(FAM)KKK [SRC3] |  |  |  |  |  |  | 0.01 (1/min)*10^3 | 0.01 (1/min)*10^3 | 0.01 (1/min)*10^3 | 0.33 (1/min)*10^3 | lowest degree of ubiquitination |  |
| K-(PEG)-KEEKDINNNVKKTK(FAM)KKK [iNOS] |  |  |  |  |  |  | 1.0 (1/min)*10^3 | 0.01 (1/min)*10^3 | 0.01 (1/min)*10^3 | 0.3 (1/min)*10^3 | higher ubiquitination | 1.62 |
| KAAEEEEVSLASTPTDVRDVDIK(FAM)KKK [Cyclin D1] |  |  |  |  |  |  | 0.01 (1/min)*10^3 | 0.01 (1/min)*10^3 | 0.01 (1/min)*10^3 | 1.8 (1/min)*10^3 | lowest degree of ubiquitination | 0.47 |
| KKYSSQTSQDSGNYSNK(FAM)KKK [IFNAR1] |  |  |  |  |  |  | 0.01 (1/min)*10^3 | 0.01 (1/min)*10^3 | 0.01 (1/min)*10^3 | 0.1 (1/min)*10^3 |  | 0.96 |
| KPFLNGGPYHSREQSTDSGLGLGSYK(FAM)KKK [TAZ] |  |  |  |  |  |  | 1.5 (1/min)*10^3 | 0.1 (1/min)*10^3 | 0.5 (1/min)*10^3 | 0.1 (1/min)*10^3 |  | 2.65 |
